Read-outs that look alike come from different tables or passages of the source.
Key:
[1] = test system: HIV-1 RF virus in CEM-SS cells; experiment: HIV-1 cell protection assay (XTT dye reduction); assay type: cell-based; settings: RF strain of HIV-1, CEM-SS cells, XTT read-out after six days, read-out: EC50
Method in brief: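 Infected CEM-SS cultures incubated six days, then XTT with phenazine methosulfate added for 4 h; viability read as formazan absorbance at 450 nm. Formazan expressed as percent of uninfected, compound-free cells; CC50 from uninfected treated cells, therapeutic index as CC50/EC50.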

[2] = target: T1, Full-length wild type HIV-1 integrase (SF1) (Human immunodeficiency virus type 1 group M subtype B, UniProt P04585); experiment: Integrase strand-transfer scintillation proximity assay; assay type: biochemical; settings: strand-transfer SPA, 246 nM integrase, 50 nM host DNA, 37° C., 50 min; read-out: IC50
T1 construct: made in house; host or cells: E. coli BL21 (DE3)

HIV-1 = HIV-1 infected patients; S. Little et al., CROI 2005, Abstract 161; cited from earlier work
[3] = Human immunodeficiency virus 1, 144 h

Compound | EC50 [1, 3] | IC50 [2] | clinical efficacy in the treatment of HIV-infected patients (HIV-1) | EC50 [1]
C[C@@H]1CN(Cc2cn(Cc3ccc(F)cc3)c3cnc4c(c23)CCN(O)C4=O)C[C@H](C)O1 [Example 45, 1-{[(2R,6S)-2,6-dimethylmorpholin-4-yl]methyl}-3-(4-fluorobenzyl)-7-hydroxy-3,7,8,9-tetrahydro-6H-pyrrolo[2,3-c]-1,7-naphthyridin-6-one] | 0.45 nM | 9.07 nM |  | 
N#Cc1cc(Cn2ccc3c4c(ncc32)C(=O)N(O)CC4)ccc1F [Example 88, 2-fluoro-5-[(7-hydroxy-6-oxo-6,7,8,9-tetrahydro-3H-pyrrolo[2,3-c]-1,7-naphthyridin-3-yl)methyl]benzonitrile] | 0.45 nM | 9 nM |  | 
O=C(NCc1ccc(F)cc1)c1nc(N2CCCCS2(=O)=O)c2cccnc2c1O [Example L-000870810] |  |  | showed clinical efficacy | 
O=C1c2ncc3c(c(CCNCCC(F)(F)F)cn3Cc3ccc(F)cc3)c2CCN1O [Example 117, 3-(4-fluorobenzyl)-7-hydroxy-1-{2-[(3,3,3-trifluoropropyl)amino]ethyl}-3,7,8,9-tetrahydro-6H-pyrrolo[2,3-c]-1,7-naphthyridin-6-one] | 6 nM | 17 nM |  | 
CCCCOCc1cn(Cc2ccc(F)cc2)c2cnc3c(c12)CCN(O)C3=O [Example 60, 1-(butoxymethyl)-3-(4-fluorobenzyl)-7-hydroxy-3,7,8,9-tetrahydro-6H-pyrrolo[2,3-c]-1,7-naphthyridin-6-one] | 0.39 nM | 12 nM |  | 
3-(4-fluorobenzyl)-7-hydroxy-1-[(2-propoxyethoxy)methyl]-3,7-dihydro-6H-pyrrolo[23-c]-17-naphthyridin-6-one [Example 89] |  | 10 nM |  | 1 nM
CN(CCc1cn(Cc2ccc(F)cc2)c2cnc3c(c12)CCN(O)C3=O)CC1CC1 [Example 114] | 10 nM | 19 nM |  | 
CCCOCCOCc1cn(Cc2ccc(F)cc2)c2cnc3c(c12)CCN(O)C3=O [Example 75, 3-(4-fluorobenzyl)-7-hydroxy-1-[(2-propoxyethoxy)methyl]-3,7,8,9-tetrahydro-6H-pyrrolo[2,3-c]-1,7-naphthyridin-6-one] | 0.7 nM | 17 nM |  | 
CN(Cc1cn(Cc2ccc(F)cc2)c2cnc3c(c12)CCN(O)C3=O)CC(F)(F)F [Example 73, 3-(4-fluorobenzyl)-7-hydroxy-1-{[methyl(2,2,2-trifluoroethyl)amino]methyl}-3,7,8,9-tetrahydro-6H-pyrrolo[2,3-c]-1,7-naphthyridin-6-one] | 0.4 nM | 7 nM |  | 
O=C1c2ncc3c(c(CNCc4ccc(F)c(F)c4)cn3Cc3ccc(F)cc3)c2CCN1O [Example 48, 1-{[(3,4-difluorobenzyl)amino]methyl}-3-(4-fluorobenzyl)-7-hydroxy-3,7,8,9-tetrahydro-6H-pyrrolo[2,3-c]-1,7-naphthyridin-6-one] | 1 nM | 16.8 nM |  | 
CC(C)N(CCOCc1cn(Cc2ccc(F)cc2)c2cnc3c(c12)CCN(O)C3=O)C(C)C [Example 80, 1-{[2-(diisopropylamino)ethoxy]methyl}-3-(4-fluorobenzyl)-7-hydroxy-3,7,8,9-tetrahydro-6H-pyrrolo[2,3-c]-1,7-naphthyridin-6-one] | 12 nM | 23 nM |  | 
